Entries after “also recorded” stand apart in the source; their conditions may differ.
Key:
PBMC [1] = assay: Mitogen-induced lymphoproliferation (Example 12); assay type: cell-based, human
Description: Concanavalin A (Con A), pokeweed mitogen, (PWM) and phytohaemagglutin-P (PHA-P) were obtained from Sigma Chemical Co. (St. Louis, MO, USA). Peptide T was synthesised by Carlbiotech Ltd (Copenhagen, Denmark) and supplied as the chloride salt at 8.5 mg/ml in 0.9% benzyl alcohol as a preservative and was stored at 4°C. Peptide T was diluted to working solutions in culture medium (RPMI). Dilute solutions of Peptide T were prepared fresh from stock Peptide T for each experiment. ^3H-thymidine (5 Ci/mmol) was obtained from Amersham.
Isolation of PBMC: Whole blood from healthy, adult volunteers was drawn into heparin and peripheral blood mononuclear cells (PBMC) isolated by density gradient centrifugation on HISTOPAQUE™ (Sigma Chemical Co). PBMC were removed from the interface, washed three times in RPMI containing gentamycin (100µg/ml) and resuspended to 1x10^6 PBMC/ml in RPMI containing 10% foetal bovine serum and gentamycin. 10^5 PBMC were cultured in the presence of 100µl of mitogen suspension in 96 well plates. The final concentration of mitogen was: PWM 25µg/ml; PHA 12.5µg/ml and Con A 6.25µg/ml. 10µl of Peptide T working solution (or RPMI as negative control) was added and cell cultures incubated for a total of 5 days in a humid atmosphere, 5% CO2, 37°C. Cultures were then pulsed with ^3H-thymidine (in RPMI) 18-24 hours prior to harvesting. The amount of incorporated ^3H-thymidine was determined using a BECKMAN™ LS8000 liquid scintillation counter and proliferation expressed as either counts per minute (cpm) or as a proliferation index (PI). PI=(cpm of (PBMC+mitogen))/(cpm of (PBMC+media)) [formula]
All experiments were performed in triplicate. Results reported are characteristic of replicated experiments.
Statistical Analyses: Data were analysed by a two sample ANOVA test using 95% confidence limits such that a value of p≤0.05 was considered a significant difference.

PBMC [2] = assay: Mitogen induced proliferation of PBMC, 3H thymidine uptake, 6 day culture (Example 8); assay type: cell-based, human
Description: PBMC (10^5) were cultured in 200 µl RPMI containing 10% heat inactivated foetal bovine serum, 2 mM L-glutamine and gentamycin 100 µg/ml with mitogen and Peptide T added on the first day of culture. Growth was assessed in triplicate by ^3H thymidine uptake following a 6 day incubation and expressed as a proliferation index (cpm in presence of mitogen ± Peptide T […] cpm in absence of stimulation). A proliferation index >1.00 implies growth beyond that in media alone. At physiologically obtainable concentrations, Peptide T inhibits proliferation of normal (HIV seronegative) peripheral blood mononuclear cells (PBMC) without causing significant cytotoxicity as shown in Table III. This effect is long term in that Peptide T given on the first day of a six day culture will inhibit mitogen induced proliferation.

p56^lck = assay: lck specific tyrosine kinase assay (autophosphorylation) in PBL blasts (Example 10); assay type: cell-based; design: key: ++++: highly active; +: slightly active; conditions: Unstimulated PBL blasts; Peptide T 10^-9 M for 2 hours; without P.T. +++
Description: PBL (peripheral blood leukocyte) blasts were prepared by incubating PBMC at 37°C with PHA (10 µg/ml) in RPMI + 10% FBS for 48 hours followed by addition of interleukin-2 and incubation for a subsequent 96 hours. Cells were washed free of IL-2 and incubated for 24 hours then washed free of FBS and incubated for 24 hours. PBL blasts remained either […] or were. treated with OKT4A (anti-CD4) at 10 µg/ml for 1 hour followed by rat anti-mouse Ig at 5 µg/ml for 5 minutes to enhance lck activity. PBL blasts were pretreated with Peptide T (10^-9 M) for 2 hours, then washed extensively before anti-CD4 stimulation. Following immunoprecipitation with anti-lck-Protein A conjugates and incubation (37°C, 10 minutes) with ^32P-ATP, p56^lck autophosphorylation was determined by autoradiography and used as a measure of p56^lck activity.
Peptide T will inhibit the PHA-induced activation and anti-CD4 dependent enhancement of p56^lck activity as we have determined (Table V) by an lck specific tyrosine kinase assay. p56^lck is a CD4 associated tyrosine kinase involved in T cell activation and transmembrane signalling (Janeway C.A. Ann. Rev. Immunol. 10 645-674 (1992)). […]

Jurkat = assay: Growth of spontaneously proliferating cell line Jurkat; assay type: cell-based; conditions: p56^lck positive human T cell line
Text: Molt-4 is a human T lymphoma cell line, p56^lck negative, and Jurkat is a human T cell line, p56^lck positive, that will grow spontaneously in the absence of exogenous stimuli.

[3] = tested on: human monocyte chemotaxis; conditions: cited from earlier work
Molt-4 cells = assay: PBMC mediated killing of Molt-4 cells; assay type: cell-based, human; conditions: Peptide T added on the first day of a four day culture
Text: When PBMC are mixed with allogeneic Molt-4 cells the growth of Molt-4 is inhibited (Figure 6). Alloreactive PBMC recognise Molt-4 as foreign and generate cytotoxic effector cells that kill Molt-4. Molt-4 is not a cytotoxic cell line and can not generate alloreactive effector cells. […] It is not possible to distinguish growth of alloreactive T cells from the growth of Molt-4 survivors since neither the growth of alloreactive T cells (Figure 5) nor the growth of Molt-4 (Table IX) would be affected by Peptide T.

C[C@@H](N)C(=O)N[C@@H](CO)C(=O)N[C@H](C(=O)N[C@H](C(=O)N[C@H](C(=O)N[C@@H](CC(N)=O)C(=O)N[C@@H](Cc1ccc(O)cc1)C(=O)N[C@H](C(N)=O)[C@@H](C)O)[C@@H](C)O)[C@@H](C)O)[C@@H](C)O [Peptide T, D-Ala-Ser-Thr-Thr-Thr-Asn-Tyr-Thr-NH2]
concentration able to inhibit stimulated PBMC cultures (PBMC [1]; Con A stimulated, as little as): 0.001 pM | cytotoxicity for responding lymphocytes (PBMC [1]; Con A-induced proliferation measured daily): not cytotoxic | proliferation index ± standard deviation (PBMC [1]; Con A, Peptide T 1x10^-9 M added Day 1, no Peptide T 21.0 ± 5.7): 6.2 ± 0.5 | proliferation index ± standard deviation (PBMC [1]; Con A, Peptide T 1x10^-9 M added Day 2, no Peptide T 21.0 ± 5.7): 6.0 ± 1.1 | proliferation index ± standard deviation (PBMC [1]; Con A, Peptide T 1x10^-9 M added Day 3, no Peptide T 21.0 ± 5.7): 9.9 ± 0.1 | proliferation index ± standard deviation (PBMC [1]; Con A, Peptide T 1x10^-9 M added Day 4, no Peptide T 21.0 ± 5.7): 9.5 ± 1.6 | concentration able to inhibit stimulated PBMC cultures (PBMC [1]; PHA stimulated): 0.1 pM | proliferation index ± standard deviation (PBMC [1]; PHA, Peptide T 1x10^-9 M added Day 1, no Peptide T 197 ± 3): 148 ± 13 | proliferation index ± standard deviation (PBMC [1]; PHA, Peptide T 1x10^-9 M added Day 2, no Peptide T 197 ± 3): 101 ± 7 | proliferation index ± standard deviation (PBMC [1]; PHA, Peptide T 1x10^-9 M added Day 3, no Peptide T 197 ± 3): 148 ± 7 | proliferation index ± standard deviation (PBMC [1]; PHA, Peptide T 1x10^-9 M added Day 4, no Peptide T 197 ± 3): 131 ± 10 | concentration able to inhibit stimulated PBMC cultures (PBMC [1]; PWM stimulated, as little as): 0.001 pM | proliferation index ± standard deviation (PBMC [1]; PWM, Peptide T 1x10^-9 M added Day 1, no Peptide T 4.29 ± 0.25): 3.13 ± 0.21 | proliferation index ± standard deviation (PBMC [1]; PWM, Peptide T 1x10^-9 M added Day 2, no Peptide T 4.29 ± 0.25): 3.20 ± 0.20 | proliferation index ± standard deviation (PBMC [1]; PWM, Peptide T 1x10^-9 M added Day 3, no Peptide T 4.29 ± 0.25): 2.65 ± 0.17 | proliferation index ± standard deviation (PBMC [1]; PWM, Peptide T 1x10^-9 M added Day 4, no Peptide T 4.29 ± 0.25): 3.22 ± 0.28 | mitogen induced proliferation of PBMC after exposure and washing (PBMC [1]; exposure to Peptide T for 2 hours, cells washed before mitogen): inhibition of proliferation | Con A-induced lymphocyte proliferation measured daily (PBMC [1]; growth period day 2-4, Peptide T 10^-9M, compared with growth in absence of the drug): paralleled, but at a reduced rate | growth of PBMC in the absence of mitogen (PBMC [1]; no mitogen): negligible effects; also recorded: did not significantly affect | mitogen stimulation of PBMC after pre-incubation (PBMC [1]; pre-incubation with Peptide T for less than 30 minutes): no effect | Proliferation Index ± SD (PBMC [2]; ConA 25 µg/ml, Peptide T 10^-5 mol/l, without Peptide T 4.55±0.66): 2.72±1.20 | Proliferation Index ± SD (PBMC [2]; ConA 25 µg/ml, Peptide T 10^-7 mol/l, without Peptide T 4.55±0.66): 3.19±0.06 | Proliferation Index ± SD (PBMC [2]; ConA 25 µg/ml, Peptide T 10^-9 mol/l, without Peptide T 4.55±0.66): 1.98±0.04 | Proliferation Index ± SD (PBMC [2]; ConA 25 µg/ml, Peptide T 10^-12 mol/l, without Peptide T 4.55±0.66): 1.69±0.48 | Proliferation Index ± SD (PBMC [2]; Media (absence of mitogens), Peptide T 10^-5 mol/l): 1.14±0.15 | Proliferation Index ± SD (PBMC [2]; Media (absence of mitogens), Peptide T 10^-7 mol/l): 0.73±0.16 | Proliferation Index ± SD (PBMC [2]; Media (absence of mitogens), Peptide T 10^-9 mol/l): 2.17±1.10 | Proliferation Index ± SD (PBMC [2]; Media (absence of mitogens), Peptide T 10^-12 mol/l): 1.52±0.15 | Proliferation Index ± SD (PBMC [2]; PHA 25 µg/ml, Peptide T 10^-5 mol/l, without Peptide T 317.0±41.0): 149.0±38.4 | Proliferation Index ± SD (PBMC [2]; PHA 25 µg/ml, Peptide T 10^-7 mol/l, without Peptide T 317.0±41.0): 123.6±18.1 | Proliferation Index ± SD (PBMC [2]; PHA 25 µg/ml, Peptide T 10^-9 mol/l, without Peptide T 317.0±41.0): 78.6±23.1 | Proliferation Index ± SD (PBMC [2]; PHA 25 µg/ml, Peptide T 10^-12 mol/l, without Peptide T 317.0±41.0): 103.8±22.8 | Proliferation Index ± SD (PBMC [2]; PWM 25 µg/ml, Peptide T 10^-7 mol/l, without Peptide T 7.47±0.50): 4.47±0.36 | Proliferation Index ± SD (PBMC [2]; PWM 25 µg/ml, Peptide T 10^-9 mol/l, without Peptide T 7.47±0.50): 4.69±0.42 | Proliferation Index ± SD (PBMC [2]; PWM 25 µg/ml, Peptide T 10^-12 mol/l, without Peptide T 7.47±0.50): 4.15±0.23 | activity of p56^lck (p56^lck): + | growth of Jurkat cell line (Jurkat): did not significantly affect | agonist activity on human monocyte chemotaxis [3]: potent agonists | PBMC-mediated inhibition of Molt-4 proliferation (Molt-4 cells): remains unaffected

Source: patent EP0960886B1, “Peptide T and related peptides in the treatment of inflammation, including multiple sclerosis” (priority 1992, dated 1993)
